Data taken from the supplement of paper PMC10307832.

Experiments:
Assay in all cases: relative viability (nuclei count vs DMSO), 5 days (fraction); higher = more cells survive
Silmitasertib = compound: O=C(O)c1ccc2c(c1)nc(Nc1cccc(Cl)c1)c1ccncc12 [Silmitasertib]
Procedure, shortened: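 On vehicle-anchored 1536-well plates, lung cancer cell lines held overnight at 37 °C were pinned with five library-drug doses (not always all listed) spaced by √10. With no medium change over 5 days, they were then fixed, permeabilised and Hoechst-stained in one step and imaged at 4×. MetaXpress counted nuclei, and viability is the median across plates of treated-well over vehicle-well nuclei. Acceptance needed control CV below 25% and at least one doubling.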

[1] = compound: O=C(O)c1ccc2c(c1)nc(Nc1cccc(Cl)c1)c1ccncc12 [Silmitasertib] + O=C(CCCCCCC(=O)Nc1ccccc1)NO [Vorinostat] (partner 1 µM)
Procedure, shortened: (§1)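 After 5 days of treatment, lung cancer cells in 1536-well plates were fixed and stained in a single step (final 0.05% Triton X-100, 1% formaldehyde, 1 ug/ml Hoechst) and their nuclei counted on 4× images. Treatment had been applied by pin tool the day after seeding as one drug alone or as a fixed anchor-drug dose with five library-drug doses (not always all listed) in √10 steps. Relative viability is the nuclei count of treated wells divided by that of vehicle wells, and values are medians of duplicate plates.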

[2] = compound: O=C(O)c1ccc2c(c1)nc(Nc1cccc(Cl)c1)c1ccncc12 [Silmitasertib] + Nc1nc2[nH]cc(CCc3ccc(C(=O)N[C@@H](CCC(=O)O)C(=O)O)cc3)c2c(=O)[nH]1 [Pemetrexed] (partner 0.2 µM)
Procedure, shortened: as §1

Silmitasertib + Olaparib = compound: O=C(O)c1ccc2c(c1)nc(Nc1cccc(Cl)c1)c1ccncc12 [Silmitasertib] + O=C(c1cc(Cc2n[nH]c(=O)c3ccccc23)ccc1F)N1CCN(C(=O)C2CC2)CC1 [Olaparib] (partner 8 µM)
Procedure, shortened: as §1

[3] = compound: O=C(O)c1ccc2c(c1)nc(Nc1cccc(Cl)c1)c1ccncc12 [Silmitasertib] + Cc1cc(Nc2cc(N3CCN(C)CC3)nc(Sc3ccc(NC(=O)C4CC4)cc3)n2)n[nH]1 [Tozasertib] (partner 0.1 µM)
Procedure, shortened: as §1

[4] = compound: O=C(O)c1ccc2c(c1)nc(Nc1cccc(Cl)c1)c1ccncc12 [Silmitasertib] + Nc1ncn([C@H]2C[C@H](O)[C@@H](CO)O2)c(=O)n1 [Decitabine] (partner 2 µM)
Procedure, shortened: as §1

[5] = compound: O=C(O)c1ccc2c(c1)nc(Nc1cccc(Cl)c1)c1ccncc12 [Silmitasertib] + CC(=O)Nc1cccc(-n2c(=O)n(C3CC3)c(=O)c3c(Nc4ccc(I)cc4F)n(C)c(=O)c(C)c32)c1 [Trametinib] (partner 0.02 µM)
Procedure, shortened: as §1

[6] = compound: O=C(O)c1ccc2c(c1)nc(Nc1cccc(Cl)c1)c1ccncc12 [Silmitasertib] + CC(=O)c1c(C)c2cnc(Nc3ccc(N4CCNCC4)cn3)nc2n(C2CCCC2)c1=O [Palbociclib] (partner 0.5 µM)
Procedure, shortened: as §1

Silmitasertib + AZD7762 = compound: O=C(O)c1ccc2c(c1)nc(Nc1cccc(Cl)c1)c1ccncc12 [Silmitasertib] + NC(=O)Nc1cc(-c2cccc(F)c2)sc1C(=O)N[C@H]1CCCNC1 [AZD7762] (partner 0.2 µM)
Procedure, shortened: as §1

Silmitasertib + OSI-027 = compound: O=C(O)c1ccc2c(c1)nc(Nc1cccc(Cl)c1)c1ccncc12 [Silmitasertib] + COc1cccc2cc(-c3nc([C@H]4CC[C@H](C(=O)O)CC4)n4ncnc(N)c34)[nH]c12 [OSI-027] (partner 0.5 µM)
Procedure, shortened: as §1

[7] = compound: O=C(O)c1ccc2c(c1)nc(Nc1cccc(Cl)c1)c1ccncc12 [Silmitasertib] + CC(C)C[C@H](NC(=O)[C@H](Cc1ccccc1)NC(=O)c1cnccn1)B(O)O [Bortezomib] (partner 0.002 µM)
Procedure, shortened: as §1

[8] = compound: O=C(O)c1ccc2c(c1)nc(Nc1cccc(Cl)c1)c1ccncc12 [Silmitasertib] + CS(=O)(=O)N1CCN(Cc2cc3nc(-c4cccc5[nH]ncc45)nc(N4CCOCC4)c3s2)CC1 [Pictilisib] (partner 1 µM)
Procedure, shortened: as §1

[9] = compound: O=C(O)c1ccc2c(c1)nc(Nc1cccc(Cl)c1)c1ccncc12 [Silmitasertib] + CC1(C)CCC(c2ccc(Cl)cc2)=C(CN2CCN(c3ccc(C(=O)NS(=O)(=O)c4ccc(N[C@H](CCN5CCOCC5)CSc5ccccc5)c(S(=O)(=O)C(F)(F)F)c4)cc3)CC2)C1 [Navitoclax] (partner 0.5 µM)
Procedure, shortened: as §1

[10] = compound: O=C(O)c1ccc2c(c1)nc(Nc1cccc(Cl)c1)c1ccncc12 [Silmitasertib] + COc1cc2c(Oc3ccc(NC(=O)C4(C(=O)Nc5ccc(F)cc5)CC4)cc3F)ccnc2cc1OCCCN1CCOCC1 [Foretinib] (partner 0.25 µM)
Procedure, shortened: as §1

[11] = compound: O=C(O)c1ccc2c(c1)nc(Nc1cccc(Cl)c1)c1ccncc12 [Silmitasertib] + CS(=O)(=O)CCNCc1ccc(-c2ccc3ncnc(Nc4ccc(OCc5cccc(F)c5)c(Cl)c4)c3c2)o1 [Lapatinib] (partner 2 µM)
Procedure, shortened: as §1

[12] = compound: O=C(O)c1ccc2c(c1)nc(Nc1cccc(Cl)c1)c1ccncc12 [Silmitasertib] + C[C@@H](Oc1cc(-c2cnn(C3CCNCC3)c2)cnc1N)c1c(Cl)ccc(F)c1Cl [Crizotinib] (partner 1 µM)
Procedure, shortened: as §1

[13] = compound: O=C(O)c1ccc2c(c1)nc(Nc1cccc(Cl)c1)c1ccncc12 [Silmitasertib] + C[C@]1(O)C[C@@H](c2nc(-c3ccc4ccc(-c5ccccc5)nc4c3)c3c(N)nccn32)C1 [Linsitinib] (partner 1 µM)
Procedure, shortened: as §1

[14] = compound: O=C(O)c1ccc2c(c1)nc(Nc1cccc(Cl)c1)c1ccncc12 [Silmitasertib] + Cc1nc(NC(=O)N2CCC[C@H]2C(N)=O)sc1-c1ccnc(C(C)(C)C(F)(F)F)c1 [Alpelisib] (partner 2 µM)
Procedure, shortened: as §1

In the case of NCI-H1648, the relative viability (Silmitasertib; 0.04 µM) is reported as 1.26, the relative viability (Silmitasertib; 0.4 µM) is reported as 0.63 and the relative viability (Silmitasertib; 1.265 µM) is reported as 0.889. The relative viability (Silmitasertib; 4 µM) was 0.684, the relative viability ([1]; first compound 0.04 µM) was 0.435 and the relative viability ([1]; first compound 0.4 µM) was 0.517. For the same cell line, the relative viability ([1]; first compound 1.265 µM) was 0.271, the relative viability ([1]; first compound 4 µM) was 0.574 and the relative viability ([2]; first compound 0.04 µM) was 0.689. For the same cell line, the relative viability ([2]; first compound 0.4 µM) was 0.699, the relative viability ([2]; first compound 1.265 µM) was 0.863 and the relative viability ([2]; first compound 4 µM) was 0.679. The relative viability (Silmitasertib + Olaparib; first compound 0.04 µM) was 0.84, the relative viability (Silmitasertib + Olaparib; first compound 0.4 µM) was 0.525 and the relative viability (Silmitasertib + Olaparib; first compound 1.265 µM) was 1.07. For the same cell line, the relative viability (Silmitasertib + Olaparib; first compound 4 µM) was 0.876, the relative viability ([3]; first compound 0.04 µM) was 0.61 and the relative viability ([3]; first compound 1.265 µM) was 0.283. For the same cell line, the relative viability ([3]; first compound 4 µM) was 0.363, the relative viability ([4]; first compound 0.04 µM) was 0.49 and the relative viability ([4]; first compound 0.4 µM) was 0.55. For the same cell line, the relative viability ([4]; first compound 1.265 µM) was 0.494, the relative viability ([4]; first compound 4 µM) was 0.559 and the relative viability ([5]; first compound 0.04 µM) was 0.634. The relative viability ([5]; first compound 0.4 µM) was 0.366, the relative viability ([5]; first compound 1.265 µM) was 0.474 and the relative viability ([5]; first compound 4 µM) was 0.527. For the same cell line, the relative viability ([6]; first compound 0.04 µM) was 0.256, the relative viability ([6]; first compound 0.4 µM) was 0.229 and the relative viability ([6]; first compound 1.265 µM) was 0.301. It also gave a relative viability ([6]; first compound 4 µM) of 0.327, a relative viability (Silmitasertib + AZD7762; first compound 0.04 µM) of 0.709 and a relative viability (Silmitasertib + AZD7762; first compound 0.4 µM) of 0.624. It also gave a relative viability (Silmitasertib + AZD7762; first compound 1.265 µM) of 0.739, a relative viability (Silmitasertib + AZD7762; first compound 4 µM) of 0.423 and a relative viability (Silmitasertib + OSI-027; first compound 0.04 µM) of 0.255. It also gave a relative viability (Silmitasertib + OSI-027; first compound 1.265 µM) of 0.267 and a relative viability (Silmitasertib + OSI-027; first compound 4 µM) of 0.245.

Cell Line Calu-6 has a relative viability (Silmitasertib; 0.04 µM) of 1.14, a relative viability (Silmitasertib; 0.4 µM) of 0.898 and a relative viability (Silmitasertib; 1.265 µM) of 0.885. It also gave a relative viability (Silmitasertib; 4 µM) of 0.663, a relative viability ([7]; first compound 0.04 µM) of 1.13 and a relative viability ([7]; first compound 0.4 µM) of 0.868. For the same cell line, the relative viability ([7]; first compound 1.265 µM) was 0.824, the relative viability ([7]; first compound 4 µM) was 0.602 and the relative viability ([8]; first compound 0.04 µM) was 0.99. It also gave a relative viability ([8]; first compound 0.4 µM) of 0.934, a relative viability ([8]; first compound 1.265 µM) of 0.628 and a relative viability ([8]; first compound 4 µM) of 0.359. For the same cell line, the relative viability ([9]; first compound 0.04 µM) was 1, the relative viability ([9]; first compound 0.4 µM) was 0.783 and the relative viability ([9]; first compound 1.265 µM) was 0.661. It also gave a relative viability ([9]; first compound 4 µM) of 0.374, a relative viability ([10]; first compound 0.04 µM) of 0.963 and a relative viability ([10]; first compound 0.4 µM) of 0.83. The relative viability ([10]; first compound 1.265 µM) was 0.846, the relative viability ([10]; first compound 4 µM) was 0.616 and the relative viability (Silmitasertib + Olaparib; first compound 0.04 µM) was 0.654. The relative viability (Silmitasertib + Olaparib; first compound 0.4 µM) was 0.28, the relative viability (Silmitasertib + Olaparib; first compound 1.265 µM) was 0.445 and the relative viability (Silmitasertib + Olaparib; first compound 4 µM) was 0.39. It also gave a relative viability ([11]; first compound 0.04 µM) of 1.13, a relative viability ([11]; first compound 0.4 µM) of 0.945 and a relative viability ([11]; first compound 1.265 µM) of 0.761. The relative viability ([11]; first compound 4 µM) was 0.51, the relative viability ([12]; first compound 0.04 µM) was 0.915 and the relative viability ([12]; first compound 0.4 µM) was 0.721. It also gave a relative viability ([12]; first compound 1.265 µM) of 0.727, a relative viability ([12]; first compound 4 µM) of 0.527 and a relative viability ([13]; first compound 0.04 µM) of 1.04. It also gave a relative viability ([13]; first compound 0.4 µM) of 0.862, a relative viability ([13]; first compound 1.265 µM) of 0.878 and a relative viability ([13]; first compound 4 µM) of 0.49. It also gave a relative viability ([14]; first compound 0.04 µM) of 0.984, a relative viability ([14]; first compound 0.4 µM) of 0.938 and a relative viability ([14]; first compound 1.265 µM) of 0.755. It also gave a relative viability ([14]; first compound 4 µM) of 0.571.
